US10508120B2, “TYK2 inhibitors and uses thereof” (Nimbus Lakshmi, Inc., priority 2017, dated 2019)

Molecular target: human TYK2 (JH2domain-pseudokinase) (Homo sapiens (Human), UniProt P29597)
Test: TYK2 JH2 Domain Binding Assay (KINOMEscan)
Method in brief: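 Displacement of a DNA-tagged TYK2 JH2 fusion (human, aa G556–D888, HEK293 extract, <0.1 nM) from ligand-coated beads over 1 h at RT; binding buffer PBS/0.05% Tween 20/10 mM DTT/0.1% BSA.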

Chain of human TYK2 (JH2domain-pseudokinase) (P29597 556-888): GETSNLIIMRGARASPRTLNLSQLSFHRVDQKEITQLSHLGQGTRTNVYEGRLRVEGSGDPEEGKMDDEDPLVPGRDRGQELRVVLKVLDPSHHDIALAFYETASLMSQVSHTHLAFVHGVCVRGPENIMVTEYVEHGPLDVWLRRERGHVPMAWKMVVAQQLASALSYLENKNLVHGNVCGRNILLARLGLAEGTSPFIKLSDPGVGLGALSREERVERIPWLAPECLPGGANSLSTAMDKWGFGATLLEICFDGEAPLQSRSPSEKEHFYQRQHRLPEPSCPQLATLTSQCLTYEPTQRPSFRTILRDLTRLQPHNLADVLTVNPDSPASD

Row | Kd [nM] | Compound
1 | > 10 | CNc1cc(-c2cn(CCCO)c3ncc(F)cc23)nc2c(C(=O)N[C@H]3CC[C@@H]3OC)cnn12 [I-1298]
2 | 1 to 10 | CNc1cc(-c2cn(CCCO)c3ncccc23)nc2c(C(=O)N[C@H]3CC[C@@H]3OC)cnn12 [I-1300]
3 | 0.2 to 1 | CNc1cc(Nc2cccn(C(C)C)c2=O)nc2c(C(=O)N[C@@H]3COC[C@@H]3O)cnn12 [I-1301]
4 | < 0.2 | CNc1cc(Nc2cccn(C(C)C)c2=O)nc2c(C(=O)N[C@H]3COC[C@H]3O)cnn12 [I-1302]
5 | 0.2 to 1 | CNc1cc(Nc2cccn(C3CC(F)(F)C3)c2=O)nc2c(C(=O)N[C@@H]3CC[C@@H]3O)cnn12 [I-1305]
6 | 1 to 10 | CNc1cc(Nc2cccn(C3CC(F)(F)C3)c2=O)nc2c(C(=O)N[C@H]3CC[C@H]3O)cnn12 [I-1306]
7 | < 0.2 | CNc1cc(-c2cn(C3CCOCC3)c3ncccc23)nc2c(C(=O)N[C@@H]3COC[C@@H]3O)cnn12 [I-1307]
8 | > 10 | CNc1cc(-c2cn(C3CCOCC3)c3ncccc23)nc2c(C(=O)N[C@H]3COC[C@H]3O)cnn12 [I-1308]
9 | < 0.2 | CNc1cc(Nc2cc3cccnc3n2C2CC2)nc2c(C(=O)N[C@@H]3CC[C@H]3OC)cnn12 [I-1324]
10 | < 0.2 | CNc1cc(-c2cn(C(C)C)c3ncccc23)nc2c(C(=O)N[C@@H]3CC[C@]3(C)O)cnn12 [I-1326]
11 | < 0.2 | CNc1cc(-c2cn(C(C)C)c3ncccc23)nc2c(C(=O)N[C@H]3CC[C@@]3(C)O)cnn12 [I-1327]
12 | > 10 | CNc1cc(-c2cn(C3CCOCC3)c3ncccc23)nc2c(C(=O)N[C@H]3CC[C@@H]3OC)cnn12 [I-1329]
13 | < 0.2 | CNc1cc(-c2cn(C3CC3)c3ncccc23)nc2c(C(=O)N[C@H]3CCC[C@]3(C)O)cnn12 [I-1335]
14 | 1 to 10 | CNc1cc(-c2cn(C3CCOCC3)c3ncccc23)nc2c(C(=O)N[C@H]3CCC[C@]3(C)O)cnn12 [I-1336]
15 | < 0.2 | CNc1cc(-c2cn(C3CC3)c3ncccc23)nc2c(C(=O)N[C@H]3COC[C@H]3O)cnn12 [I-1356]
16 | 0.2 to 1 | CNc1cc(-c2cn([C@H]3CCN(CCF)C3)c3ncccc23)nc2c(C(=O)NC3CC3)cnn12 [I-1363]
17 | < 0.2 | CNc1cc(-c2cn([C@@H]3CCN(CCF)C3)c3ncccc23)nc2c(C(=O)NC3CC3)cnn12 [I-1367, (R)—N-cyclopropyl-5-(1-(1-(2-fluoroethyl)pyrrolidin-3-yl)-1H-pyrrolo[2,3-b]pyridin-3-yl)-7-(methylamino)pyrazolo[1,5-a]pyrimidine-3-carboxamide]
18 | < 0.2 | CNc1cc(Nc2cccn(-c3cnn(C)c3F)c2=O)nc2c(C(=O)N[C@@H]3CC[C@H]3OC)cnn12 [I-1368]
19 | 1 to 10 | CNc1cc(-c2cn(C(C)C)c3ncc(F)cc23)nc2c(C(=O)N[C@@H]3CC[C@@H]3O)cnn12 [I-1386]
20 | 1 to 10 | CNc1cc(Nc2cccn(C3CC(F)(F)C3)c2=O)nc2c(C(=O)N[C@H]3CC[C@@H]3O)cnn12 [I-1390]
21 | < 0.2 | CNc1cc(Nc2cccn(C3CC(F)(F)C3)c2=O)nc2c(C(=O)N[C@@H]3CC[C@@H]3O)cnn12 [I-1391]
22 | 0.2 to 1 | CNc1cc(-c2cn(C(C)C)c3ncc(F)cc23)nc2c(C(=O)N[C@@H]3CC[C@H]3OC)cnn12 [I-1392]
23 | < 0.2 | CNc1cc(Nc2cccn([C@@H]3C[C@H]3F)c2=O)nc2c(C(=O)N[C@H]3CC[C@@H]3O)cnn12 [I-1401]
24 | 1 to 10 | CNc1cc(Nc2cccn([C@@H]3C[C@H]3F)c2=O)nc2c(C(=O)N[C@@H]3CC[C@H]3O)cnn12 [I-1402]
25 | 0.2 to 1 | CNc1cc(Nc2cccn([C@@H]3C[C@H]3F)c2=O)nc2c(C(=O)N[C@@H]3CC[C@@H]3O)cnn12 [I-1403]
26 | 1 to 10 | CNc1cc(-c2cn(C3CCOCC3)c3ncccc23)nc2c(C(=O)N[C@H]3CC[C@@H]3O)cnn12 [I-1405]
27 | > 10 | CNc1cc(Nc2cccn(C(C)C)c2=O)nc2c(C(=O)N[C@H]3COC[C@H]3O)cnn12 [I-1406]
28 | 0.2 to 1 | CNc1cc(-c2cn(C3CCOCC3)c3ncccc23)nc2c(C(=O)N[C@H]3COC[C@H]3O)cnn12 [I-1408]
29 | 0.2 to 1 | CNc1cc(-c2cn(C(C)C)c3ncccc23)nc2c(C(=O)N[C@H]3CC[C@@]3(C)O)cnn12 [I-1409]

Further lines, the compound ahead of its results:

Row | Compound | Kd [nM]
30 | CNc1cc(Nc2cccn(C3CCOCC3)c2=O)nc2c(C(=O)N[C@@H]3CCC[C@@H](OC)C3)cnn12 [I-1297] | 0.2 to 1
31 | CNc1cc(Nc2cccn(-c3cccc(F)c3)c2=O)nc2c(C(=O)N[C@@H]3COC[C@@H]3O)cnn12 [I-1303] | 1 to 10
32 | CNc1cc(Nc2cccn(-c3cccc(F)c3)c2=O)nc2c(C(=O)N[C@H]3COC[C@H]3O)cnn12 [I-1304] | 0.2 to 1
33 | CNc1cc(Nc2cccn3ccnc23)nc2c(C(=O)N[C@H]3COC[C@H]3O)cnn12 [I-1313] | > 10
34 | CNc1cc(Nc2cccn3ccnc23)nc2c(C(=O)N[C@H]3CCC[C@]3(C)O)cnn12 [I-1316] | 1 to 10
35 | CNC(=O)c1occc1Nc1cc(NC)n2ncc(C(=O)N[C@@H]3CC[C@H]3OC)c2n1 [I-1322] | < 0.2
36 | CNc1cc(Nc2cccn([C@@H]3CCC[C@@H](OC)C3)c2=O)nc2c(C(=O)N[C@@H]3CC[C@H]3OC)cnn12 [I-1330] | < 0.2
37 | CNc1cc(Nc2cccn([C@@H]3CCN(CCF)C3)c2=O)nc2c(C(=O)N[C@H]3CC[C@@H]3OC)cnn12 [I-1332] | 1 to 10
38 | CNc1cc(Nc2cccn(C(C)C)c2=O)nc2c(C(=O)N[C@@H]3CCC[C@@](C)(O)C3)cnn12 [I-1337] | < 0.2
39 | CNc1cc(Nc2cccn([C@@H]3CCCC[C@@H]3O)c2=O)nc2c(C(=O)N[C@H]3CC[C@@H]3OC)cnn12 [I-1338] | 0.2 to 1
40 | CNc1cc(Nc2cccn([C@@H]3CCCC[C@@H]3O)c2=O)nc2c(C(=O)N[C@@H]3CC[C@H]3OC)cnn12 [I-1339] | 0.2 to 1
41 | CNc1cc(Nc2cccn3cnnc23)nc2c(C(=O)N[C@@H]3CC[C@H]3OC)cnn12 [I-1342] | < 0.2
42 | CNc1cc(Nc2cccn([C@H]3CC[C@H]3O)c2=O)nc2c(C(=O)N[C@@H]3CC[C@H]3OC)cnn12 [I-1344] | 0.2 to 1
43 | CNc1cc(Nc2cccn([C@H]3CC[C@H]3O)c2=O)nc2c(C(=O)N[C@H]3CC[C@@H]3OC)cnn12 [I-1345] | < 0.2
44 | CNc1cc(Nc2cccn([C@@H]3CCCN(CCC#N)C3)c2=O)nc2c(C(=O)NC3CC3)cnn12 [I-1346, (R)-5-((1-(1-(2-cyanoethyl)piperidin-3-yl)-2-oxo-1,2-dihydropyridin-3-yl)amino)-N-cyclopropyl-7-(methylamino)pyrazolo[1,5-a]pyrimidine-3-carboxamide] | < 0.2
45 | CNc1cc(Nc2cccn([C@H]3CCCN(CCC#N)C3)c2=O)nc2c(C(=O)NC3CC3)cnn12 [I-1347, (S)-5-((1-(1-(2-cyanoethyl)piperidin-3-yl)-2-oxo-1,2-dihydropyridin-3-yl)amino)-N-cyclopropyl-7-(methylamino)pyrazolo[1,5-a]pyrimidine-3-carboxamide] | 1 to 10
46 | CNc1cc(Nc2cccn(C3CCCCC3)c2=O)nc2c(C(=O)N[C@@H]3COC[C@@H]3O)cnn12 [I-1348] | < 0.2
47 | CNc1cc(Nc2cccn(C3CCCCC3)c2=O)nc2c(C(=O)N[C@H]3COC[C@H]3O)cnn12 [I-1349] | 1 to 10
48 | CNc1cc(Nc2cccn([C@@H]3CC[C@@H]3O)c2=O)nc2c(C(=O)N[C@H]3CC[C@@H]3OC)cnn12 [I-1351] | < 0.2

Row | Compound | Kd [nM]
49 | CNc1cc(Nc2cccn(C3CCOCC3)c2=O)nc2c(C(=O)N[C@@H]3CC[C@H](O)C3)cnn12 [I-1357] | > 10
50 | CNc1cc(Nc2cccn([C@H]3CCC[C@@H](C#N)C3)c2=O)nc2c(C(=O)N[C@@H]3C[C@@H]3F)cnn12 [I-1360] | < 0.2
51 | CNc1cc(Nc2cccn([C@H]3CCC[C@@H](C#N)C3)c2=O)nc2c(C(=O)NC3CC3)cnn12 [I-1361] | 0.2 to 1
52 | CNc1cc(Nc2cccn(C(C)C)c2=O)nc2c(C(=O)N[C@@H]3CC[C@]3(C)O)cnn12 [I-1370] | 1 to 10
53 | CNc1cc(Nc2cccn(C(C)C)c2=O)nc2c(C(=O)N[C@H]3CC[C@@]3(C)O)cnn12 [I-1371] | < 0.2
54 | CNc1cc(Nc2cccn([C@H]3CCC[C@H]3O)c2=O)nc2c(C(=O)N[C@@H]3CC[C@H]3OC)cnn12 [I-1372] | 0.2 to 1
55 | CNc1cc(Nc2cccn([C@H]3CCC[C@H](OC)C3)c2=O)nc2c(C(=O)N[C@H]3CC[C@@H]3OC)cnn12 [I-1375] | 1 to 10
56 | CNc1cc(Nc2cccn([C@H]3CCCC[C@H]3OC)c2=O)nc2c(C(=O)N[C@@H]3CC[C@H]3OC)cnn12 [I-1376] | > 10
57 | CNc1cc(Nc2cccn([C@H]3CCN(CCF)C3)c2=O)nc2c(C(=O)N[C@@H]3CC[C@H]3OC)cnn12 [I-1380] | < 0.2
58 | CNc1cc(Nc2cccn([C@@H]3CCCN(CCF)C3)c2=O)nc2c(C(=O)N[C@@H]3CC[C@H]3OC)cnn12 [I-1383] | 1 to 10
59 | CNc1cc(Nc2cccn([C@H]3CC[C@@H]3O)c2=O)nc2c(C(=O)N[C@@H]3CC[C@H]3OC)cnn12 [I-1384] | 0.2 to 1
60 | CNc1cc(Nc2cccn([C@@H]3CCC[C@@H]3O)c2=O)nc2c(C(=O)N[C@@H]3CC[C@H]3OC)cnn12 [I-1393] | < 0.2
61 | CNc1cc(Nc2cccn([C@@H]3CCC[C@@H]3O)c2=O)nc2c(C(=O)N[C@H]3CC[C@@H]3OC)cnn12 [I-1394] | < 0.2
62 | CNc1cc(Nc2cccn([C@H]3CCC[C@H](O)C3)c2=O)nc2c(C(=O)N[C@H]3CC[C@@H]3OC)cnn12 [I-1396] | 0.2 to 1
63 | CNc1cc(Nc2cccn([C@@H]3C[C@H]3F)c2=O)nc2c(C(=O)NCC(C)(C)CO)cnn12 [I-1399] | 1 to 10
64 | CNc1cc(Nc2cccn(-c3cccc(F)c3)c2=O)nc2c(C(=O)N[C@H]3COC[C@H]3O)cnn12 [I-1407] | < 0.2
65 | CNc1cc(Nc2cccn([C@H]3CC[C@H]3O)c2=O)nc2c(C(=O)N[C@H]3CC[C@@H]3OC)cnn12 [I-1410] | < 0.2
66 | CNc1cc(Nc2cccn(-c3ccccn3)c2=O)nc2c(C(=O)N[C@H]3C[C@@H]3OC)cnn12 [I-1412] | 0.2 to 1
67 | CNc1cc(Nc2cccn([C@@H]3CCCOC3)c2=O)nc2c(C(=O)N[C@H]3C[C@@H]3OC)cnn12 [I-1414] | > 10
